For the test, the target named is T1, Recombinant human renin (Homo sapiens, UniProt P00797).
T1 construct: isolate the active form (residues 67-406); made in house; host or cells: FreeStyle 293-F cells (transient expression of pcDNA3.1(+)/hREN)
T1 sequence (P00797 67-406): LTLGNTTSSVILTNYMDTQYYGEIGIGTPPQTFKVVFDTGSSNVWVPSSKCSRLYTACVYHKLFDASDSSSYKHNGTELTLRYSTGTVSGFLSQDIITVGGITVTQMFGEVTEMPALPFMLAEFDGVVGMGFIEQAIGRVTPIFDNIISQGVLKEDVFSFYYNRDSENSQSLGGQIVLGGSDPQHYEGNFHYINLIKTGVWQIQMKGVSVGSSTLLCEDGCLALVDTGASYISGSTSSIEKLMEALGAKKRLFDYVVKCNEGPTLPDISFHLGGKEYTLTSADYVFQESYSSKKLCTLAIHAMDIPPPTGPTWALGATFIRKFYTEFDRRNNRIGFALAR
Nature of the test: In vitro enzymatic activity assay of renin inhibitors (fluorogenic peptide substrate). The following applies: for IC50: read-out: IC50 of Exemplified Compounds Against Renin. Format: biochemical. The procedure: Test compounds in varying concentrations may be reacted with recombinant human renin in the presence of substrate, e.g., QXL520-γ-Abu-[…](HiLyteFluo488)-Arg-OH (Anaspec, San Jose, Calif.). […] Inhibition constants (IC50) may be calculated by non-linear curve fitting of the compound concentrations and fluorescence intensities to the standard IC50 equation.
Solutions of test compounds in varying concentrations mM final concentration) are prepared in dimethyl sulfoxide (DMSO) and then diluted into assay buffer comprising 50 mM Hepes, 1 mM EDTA, 1 mM DTT, 0.1 mg/mL BSA, 0.01% Brij35, pH 7.4. Alternatively, the assay can be performed with a high BSA concentration, wherein the buffer contains an additional 2% BSA.
Recombinant human renin (3 nM final concentration) is added to the dilutions and pre-incubated with the compounds for 10 minutes at 37° C. […] After pre-incubation, the reaction is initiated with of substrate QXL520-γ-Abu-[…](HiLyteFluo488)-Arg-OH (Anaspec, San Jose, Calif.). The final DMSO in the assay is 5%. The total volume of the reaction mixture is 20 μL, which can be placed on Greiner 384-well small volume plates.
The fluorescence intensity is determined upon the addition of substrate and determined again after incubation at 37° C. for one hour. The fluorescence intensity of a blank (no inhibition) using vehicle alone is also determined. Renin activity is linearly proportional to the change in fluorescence observed (final-initial).

What is called IC50 is the concentration at which inhibition is half-maximal.

As for `O=C(Nc1ccc2c(c1)CCC2)N1CCCC(c2nc3ccccc3[nH]2)C1` (stereo not drawn) [Compound 9, 3-(1H-benzo[d]imidazol-2-yl)-N-(2,3-dihydro-1H-inden-5-yl)piperidine-1-carboxamide], the IC50 is above 1000 nM.

Consider `COCCCn1c([C@@H]2CCCN(C(=O)C[C@H](N)CNC(=O)Nc3ccccc3OC)C2)nc2ccccc21` [Compound 250, 1-((S)-2-amino-4-((R)-3-(1-(3-methoxypropyl)-1H-benzo[d]imidazol-2-yl)piperidin-1-yl)-4-oxobutyl)-3-(2-methoxyphenyl)urea], for which the IC50 is below 100 nM.

Regarding `COCCCn1c([C@@H]2CCCN(C(=O)C[C@@H](N)COc3ccccc3C(=O)OC)C2)nc2ccccc21` [Compound 432, methyl 2-((R)-2-amino-4-((R)-3-(1-(3-methoxypropyl)-1H-benzo[d]imidazol-2-yl)piperidin-1-yl)-4-oxobutoxy)benzoate], the IC50 was above 1000 nM.

Consider `COCCCn1c([C@@H]2CCCN(C(=O)C[C@H](N)Cc3ccc(-c4ccc(NC(=O)C(C)(C)O)cc4)cc3)C2)nc2ccccc21` [Compound 199, N-(4′-((R)-2-amino-4-((R)-3-(1-(3-methoxypropyl)-1H-benzo[d]imidazol-2-yl)piperidin-1-yl)-4-oxobutyl)biphenyl-4-yl)-2-hydroxy-2-methylpropanamide], for which the IC50 was below 100 nM.

As to `COCCCn1c([C@@H]2CCCN(C(=O)C[C@H](N)Cc3ccc4ccccc4c3)C2)nc2ccc(OC)cc21` [Compound 110, (R)-3-amino-1((R)-3-(6-methoxy-1-(3-methoxypropyl)-1H-benzo[d]imidazol-2-yl)piperidin-1-yl)-4-(naphthalen-2-yl)butan-1-one], the IC50 lay within 100 to 1000 nM.

In the case of `COCCCn1c([C@@H]2CCCN(C(=O)[C@@H]3CN(S(=O)(=O)c4ccccc4OC)C[C@H]3N)C2)nc2ccccc21` [Compound 379, ((3R,4S)-4-amino-1-(2-methoxyphenylsulfonyl)pyrrolidin-3-yl)((R)-3-(1-(3-methoxypropyl)-1H-benzo[d]imidazol-2-yl)piperidin-1-yl)methanone], the IC50 fell in the range of 100 to 1000 nM.

With `COCCCn1c([C@@H]2CCCN(C(=O)C[C@H](N)c3ccccc3)C2)nc2ccccc21` [Compound 89, (S)-3-amino-1((R)-3-(1-(3-methoxypropyl)-1H-benzo[d]imidazol-2-yl)piperidin-1-yl)-3-phenylpropan-1-one], the IC50 is above 1000 nM.

For `NC(=O)CCn1c([C@@H]2CCCN(C(=O)C[C@H](N)Cc3ccc(-c4cnc(N)nc4)cc3)C2)nc2ccccc21` [Compound 481, 3-(2-((R)-1-((R)-3-amino-4-(4-(2-aminopyrimidin-5-yl)phenyl)butanoyl)piperidin-3-yl)-1H-benzo[d]imidazol-1-yl)propanamide], the IC50 fell in the range of 100 to 1000 nM.

`COCCCn1c([C@@H]2CCCN(C(=O)[C@@H]3CN(S(=O)(=O)c4cc(OC)ccc4OC)C[C@H]3N)C2)nc2ccccc21` [Compound 413, ((3R,4S)-4-amino-1-(2,5-dimethoxyphenylsulfonyl)pyrrolidin-3-yl)((R)-3-(1-(3-methoxypropyl)-1H-benzo[d]imidazol-2-yl)piperidin-1-yl)methanone]: the IC50 is above 1000 nM.

As for `CC(=O)NCCn1c([C@@H]2CCCN(C(=O)C[C@H](N)Cc3ccc(-c4ccc(N)nc4)cc3)C2)nc2c(C)cccc21` [Compound 471, N-(2-(2-((R)-1-((R)-3-amino-4-(4-(6-aminopyridin-3-yl)phenyl)butanoyl)piperidin-3-yl)-4-methyl-1H-benzo[d]imidazol-1-yl)ethyl)acetamide], the IC50 was in the range of 100 to 1000 nM.

As for `COCCCn1c([C@@]2(O)CCCN(C(=O)C[C@H](N)Cc3ccc(Cl)cc3)C2)nc2ccccc21` [Compound 248, (R)-3-amino-4-(4-chlorophenyl)-1((R)-3-hydroxy-3-(1-(3-methoxypropyl)-1H-benzo[d]imidazol-2-yl)piperidin-1-yl)butan-1-one], the IC50 is above 1000 nM.

Take `COCCCn1c([C@@H]2CCCN(C(=O)C[C@H](N)Cc3ccc(-c4ccc(-n5c(C)n[nH]c5=O)cc4)cc3)C2)nc2ccccc21` [Compound 206, 4-(4′-((R)-2-amino-4-((R)-3-(1-(3-methoxypropyl)-1H-benzo[d]imidazol-2-yl)piperidin-1-yl)-4-oxobutyl)biphenyl-4-yl)-3-methyl-1H-1,2,4-triazol-5(4H)-one]: the IC50 is below 100 nM.

As to `COCCCn1c([C@@H]2CCCN(C(=O)C[C@H](N)Cc3ccc(-n4ccnc4)cc3)C2)nc2ccccc21` [Compound 208, (R)-4-(4-(1H-imidazol-1-yl)phenyl)-3-amino-1-((R)-3-(1-(3-methoxypropyl)-1H-benzo[d]imidazol-2-yl)piperidin-1-yl)butan-1-one], the IC50 is below 100 nM.

For the compound “(R)-3-amino-4-(4-chlorophenyl)-1-((S)-3-hydroxy-3-(1-(3-methoxypropyl)-1H-benzo[d]imidazol-2-yl)piperidin-1-yl)butan-1-one [Compound 247]”, the “Eutomer / distomer designation of the separated stereoisomers” value (isomers separated by preparative SFC, more or less active isomer as renin inhibitor) is on record as “Eutomer”.

Consider `COc1ccc(-c2ccc(C[C@@H](N)CC(=O)N3CCC[C@@H](c4nc5ccccc5n4CCC(N)=O)C3)cc2)cc1` [Compound 487, 3-(2-((R)-1-((R)-3-amino-4-(4′-methoxybiphenyl-4-yl)butanoyl)piperidin-3-yl)-1H-benzo[d]imidazol-1-yl)propanamide], for which the IC50 lay in the range of 100 to 1000 nM.

Consider `COC(=O)[C@H](Cc1ccccc1)NC(=O)N1CCCC(c2nc3ccccc3[nH]2)C1` (stereo partly drawn) [Compound 12, (2S)-methyl 2-(3-(1H-benzo[d]imidazol-2-yl)piperidine-1-carboxamido)-3-phenylpropanoate], for which the IC50 is above 1000 nM.

Consider `COCCCn1c([C@@H]2CCCN(C(=O)C[C@H](N)Cc3ccc(-c4cccnc4F)cc3)C2)nc2ccccc21` [Compound 151, (R)-3-amino-4-(4-(2-fluoropyridin-3-yl)phenyl)-1-((R)-3-(1-(3-methoxypropyl)-1H-benzo[d]imidazol-2-yl)piperidin-1-yl)butan-1-one], for which the IC50 is below 100 nM.

For the compound `COCCCn1c([C@@H]2CCCN(C(=O)C[C@H](N)CNC(=O)c3ccc(-c4ccc(Cl)cc4Cl)o3)C2)nc2ccccc21` [Compound 267, N-((S)-2-amino-4-((R)-3-(1-(3-methoxypropyl)-1H-benzo[d]imidazol-2-yl)piperidin-1-yl)-4-oxobutyl)-5-(2,4-dichlorophenyl)furan-2-carboxamide], the IC50 was in the range of 100 to 1000 nM.

Consider `COCCCn1c([C@@H]2CCCN(C(=O)[C@@H]3CN(S(=O)(=O)c4ccc(Br)cc4Cl)C[C@H]3N)C2)nc2ccccc21` [Compound 342, ((3R,4S)-4-amino-1-(4-bromo-2-chlorophenylsulfonyl)pyrrolidin-3-yl)((R)-3-(1-(3-methoxypropyl)-1H-benzo[d]imidazol-2-yl)piperidin-1-yl)methanone], for which the IC50 is 100 to 1000 nM.

Consider `CC(=O)NCCn1c([C@@H]2CCCN(C(=O)C[C@H](N)Cc3ccc(-c4cnc(N)nc4)cc3)C2)nc2c(Cl)cccc21` [Compound 470, N-(2-(2-((R)-1-((R)-3-amino-4-(4-(2-aminopyrimidin-5-yl)phenyl)butanoyl)piperidin-3-yl)-4-chloro-1H-benzo[d]imidazol-1-yl)ethyl)acetamide], for which the IC50 lay within 100 to 1000 nM.

Turning to `COCCCn1c([C@@H]2CCCN(C(=O)[C@@H]3CN(S(=O)(=O)c4ccc(NC(C)=O)cc4)C[C@H]3N)C2)nc2ccccc21` [Compound 380, N-(4-((3S,4R)-3-amino-4-((R)-3-(1-(3-methoxypropyl)-1H-benzo[d]imidazol-2-yl)piperidine-1-carbonyl)pyrrolidin-1-ylsulfonyl)phenyl)acetamide], the IC50 was in the range of 100 to 1000 nM.

Turning to `COCCCn1c([C@@H]2CCCN(C(=O)C[C@H](N)Cc3ccc(-n4ccc5ccccc5c4=O)cc3)C2)nc2ccccc21` [Compound 229, 2-(4-((R)-2-amino-4-((R)-3-(1-(3-methoxypropyl)-1H-benzo[d]imidazol-2-yl)piperidin-1-yl)-4-oxobutyl)phenyl)isoquinolin-1(2H)-one], the IC50 was below 100 nM.

For the compound `COCCCn1c([C@@H]2CCCN(C(=O)C[C@H](N)CNC(=O)c3ccc(C)c(C)c3)C2)nc2ccccc21` [Compound 293, N-((S)-2-amino-4-((R)-3-(1-(3-methoxypropyl)-1H-benzo[d]imidazol-2-yl)piperidin-1-yl)-4-oxobutyl)-3,4-dimethylbenzamide], the IC50 lay in the range of 100 to 1000 nM.

As for `NC(=O)CCn1c([C@@H]2CCCN(C(=O)C[C@H](N)Cc3ccc(-c4ccc5c(c4)OCCO5)cc3)C2)nc2ccccc21` [Compound 484, 3-(2-((R)-1-((R)-3-amino-4-(4-(2,3-dihydrobenzo[b][1,4]dioxin-6-yl)phenyl)butanoyl)piperidin-3-yl)-1H-benzo[d]imidazol-1-yl)propanamide], the IC50 is above 1000 nM.

Values taken from patent US8138168B1 (Takeda Pharmaceutical Company Limited, priority 2007, dated 2012).
